Assay results taken from patent US20170348337A1, “MULTIFUNCTIONAL MEMBRANE-ACTIVE AMINOGLYCOSIDE-PEPTIDE CONJUGATES” (priority 2014, published 2017).
Values after ≈ are worked out from the molar mass of the structure shown. “Also recorded” adds a separate entry of the source. Read-outs that look alike come from different tables or passages of the source.

Experiments:
[1] = test system: Vancomycin-Sensitive Enterococci (VSE); assay: organism not typed; type: cell-based; conditions: read-out: MIC
Source text: Pentobra was screened against a broad panel of microbial pathogens, including strains of E. coli, MRSA, Klebsiella (Kleb), Acinetobacter (AcB), Vancomycin-Sensitive Enterococci (VSE) and Vancomycin-Resistant Enterococci (VRE), and specifically including E. faecalis samples. […] The experimenter reported the minimum inhibitory concentration (MIC) in mass units per unit volume (μg/mL) for each compound, and MIC data were converted into molar concentrations (μM) due to the large difference between the molecular weight of tobramycin (467.5 g/mol) and Pentobra (2277 g/mol).

[2] = test system: IL-6, IL-8, TNF-α and IL-12p40 in human monocytes; assay: cytokine ELISA in P. acnes-activated monocytes; type: cell-based; conditions: 24 hrs co-treatment
Protocol: Peripheral blood mononuclear cells (PBMCs) were isolated from whole blood of normal healthy donors as approved by the Institutional Review Board at UCLA using Ficoll-Paque gradients (GE Healthcare, Piscataway, N.J.) and plated onto six-well tissue culture plates (20×10^6-30×10^6 per well) for 2 hours in RPMI 1640 medium (Invitrogen Life Technologies, Carlsbad, Calif.) supplemented with 1% fetal calf serum (Omega Scientific, Tarzana, Calif.). Nonadherent cells were removed by rigorously washing three times with RPMI. Adherent monocytes were stimulated (co-treated) with media or P. acnes in the presence of tobramycin or Pentobra in 10% fetal calf serum. P. acnes was used at an MOI of 0.5 and cells were cultured for 24 hours at 37° C.
IL-6, IL-8, Tumor necrosis factor alpha (TNF-α) and IL-12p40 levels in culture supernatants were measured by ELISA following the manufacturer's recommendations (Invitrogen). Samples were assayed in triplicates. Results are expressed as mean±SD of at least three independent experiments, with monocytes obtained from three independent donors.
Monocytes were cultured and evaluated for cytokine and chemokine expression by ELISA and real time PCR after 24 hrs.

P. aeruginosa = assay: antimicrobial activity (MIC) of P-L-A conjugates; type: cell-based
S. aureus = assay: antimicrobial activity (MIC) of P-L-A conjugates; type: cell-based
[3] = test system: P. acnes in comedone extracts; assay: microcomedone assay (human comedone extracts); type: cell-based, Propionibacterium acnes; conditions: similar drug concentrations (FIG. 11C)
E. coli ML35 = E. coli ML35 cell permeabilization assay (ONPG→ONP conversion); type: cell-based; conditions: 90 min, 37° C.
Protocol: E. coli ML35 [lacZ-(Con) ΔlacY] cannot take up the lactose mimic ONPG unless cell membrane integrity is compromised. Upon membrane permeabilization ONPG can diffuse into the bacterial cell cytoplasm where it is hydrolyzed by β-galactosidase into galactose and ONP. Since ONP absorbs at 400 nm, the permeabilization kinetics of membrane-disrupting agents can be monitored by OD400 absorbance measurement. Methodology here was very similar to previous studies. Log-phase E. coli cells were grown as described above, washed and resuspended in 10 mM Tris supplemented with 0.01 volume (1% vol/vol) TSB at pH 7.4 (Tris-TSB). In triplicate, bacteria (5×10^6 cells/well) were exposed to various concentrations of antibiotic (Pentobra, tobramycin, Pen peptide) in the presence of 2.5 mM ONPG for 90 min at 37° C. The kinetics of ONPG hydrolysis were measured by determining the absorbance at 400 nm using a plate reader spectrophotometer.
To characterize the membrane activity of Pentobra on bacteria, its permeabilization kinetics were monitored on live cells by conducting an enzymatic assay for the conversion of ortho-nitrophenyl β-D-galactopyranoside (ONPG) to ortho-nitrophenol (ONP) on the E. coli strain ML35. E. coli ML35 [lacZ-(Con) ΔlacY] constitutively expresses β-galactosidase (β-gal) but lacks the lactose permease necessary for uptake of the lactose analogue ONPG. […]

[4] = synchrotron small angle X-ray scattering (SAXS) of model membranes; conditions: DOPE/DOPS=80/20; Pentobra to lipid 1/80; tobramycin to lipid 1/20 or 1/40
Protocol: Briefly, DOPE and DOPS lyophilized lipids from Avanti Polar lipids were used without further purification. SUVs were prepared by sonication. Stock solutions of DOPE and DOPS were prepared in chloroform at ˜20 mg/g. Mixtures of these lipids were prepared at molar ratios, so DOPE/DOPS=80/20 corresponded to a 4:1 lipid ratio. Chloroform was evaporated under N2, and the mixtures were dried further by overnight desiccation under vacuum. The dried lipids were resuspended the next day in 100 mM NaCl. Solutions were incubated at 37° C. for 18 h and then sonicated until clear. SUVs were obtained by extrusion (0.2 μm pore Nucleopore filter).
Pentobra and tobramycin stock solutions were prepared by dissolving the molecules in 100 mM NaCl. Lipids were thoroughly mixed with Pentobra/tobramycin at specific molecule to lipid ratios (P/L) in 100 mM NaCl. Sample solutions were hermetically sealed in quartz-glass capillaries (Hilgenberg GmbH, Mark-tubes, code no: 4017515). Synchrotron SAXS experiments were conducted at the Stanford Synchrotron Radiation Laboratory (BL 4-2). Monochromatic X-rays with 9 keV energy were used. Scattering was collected using a Rayonix MX225-HE detector (pixel size 73.2 μm). Samples were also measured at the California NanoSystems Institute (CNSI) at UCLA. […] Identical samples were prepared and measured at different times and multiple sources to ensure consistency between samples. […]

NC[C@H]1O[C@H](O[C@H]2[C@H](O)[C@@H](O[C@H]3O[C@H](CO)[C@@H](O)[C@H](N)[C@H]3O)[C@H](N)C[C@@H]2N)[C@H](N)C[C@@H]1O [tobramycin]
MIC ([1]; isolate S4895552, VSE, LZD-R): > 274 µM
MIC ([1]; isolate W7171143,VSE): 68 µM (≈ 31.8 µg/mL)
MIC ([1]; isolate W7214342,VSE): > 274 µM
MIC ([1]; isolate X4540299, VSE): 34 µM (≈ 15.9 µg/mL)
change in IL-6, IL-8, TNF-α and IL-12p40 cytokine production [2]: no significant change
MIC (P. aeruginosa; Pseudomonas aeruginosa, read-out: MIC (μM) P. aeruginosa (stationary)): 6.25 µM (≈ 2.92 µg/mL)
MIC (μM) P. aeruginosa (mid-log) (P. aeruginosa; mid-log): 0.78-3.12 μM
MIC (μM) S. aureus (mid-log) (S. aureus): 3.12 μM
reduction in CFU [3]: less than ten
inner membrane permeabilization (400 nm absorbance, ONPG→ONP) (E. coli ML35): no membrane permeabilization occurred; also recorded: comparable to background
induced membrane curvature / phase (negative Gaussian curvature, NGC) [4]: induced NGC was not observed; also recorded: did not induce NGC or negative mean curvature
